# Measured values published in patent US20020010154A1, “Compositions comprising cyclodextrin” (priority 2000, published 2002).
# Where a name gives a salt, the structure may show the parent alone.
# Assay: Complexation constant with cyclodextrin, spectral displacement method with phenolphthalein
# Format: physicochemical
# Settings: no unit in table, complexation constants in M^−1
# Excerpt: A spectral displacement method with phenolphthalein is used to determine the complexation constant between cyclodextrin and a given material, especially for surfactants. This method of determining complexation constants with cyclodextrins is described in detail in the following references, which are hereby incorporated herein by reference: Sasaki, K. J., Christian, S. D., and Tucker, E. E., “Study of the Stability of 1:1 Complexes Between Aliphatic Alcohols and b-Cyclodextrins in Aqueous Solution,” Fluid Phase Equilibria, Vol. 49, (Amsterdam, Elsevier Science Publishers, 1989), pp. 281-89. Further information regarding spectral displacement methods can be found in other references, e.g. in Wilson, L. D., Siddall, S. R., and Verrall R. E., “A Spectral Displacement Study of the Binding Constants of Cyclodextrin-Hydrocarbon and—Fluorocarbon Surfactant Inclusion Complexes,” Canadian Journal of Chemistry, Vol. 75, (NRC Canada 1997), pp. 927-933, which is incorporated by reference herein.
# The test method is based on the fact that phenolphthalein will complex with cyclodextrin and in complexed form is colorless. However, it has a strong color at pH 10.5 when in non-complexed form. Other, cyclodextrin-incompatible, materials themselves complex with the cyclodextrin and prevent the phenolphthalein from doing so. Thus the higher the complexation constant of the other component with cyclodextrin, the more non-complexed phenolphthalein will be present and the stronger the observed color.
# The complexation constant of a given material with cyclodextrin is obtained by an absorbance measurement in the visible region at 550 nm that is performed with a spectrophotometer at room temperature. All solutions are prepared in 4.0×10^−3 mol/l Na2CO3 solution to maintain a constant pH. The concentration of phenolphthalein is kept constant at 3.0×10^−5 mol/l. Cyclodextrin concentration and surfactant concentration are varied. Here, optimum parameter values for absorption coefficient of phenolphthalein at 550 nm is 33,000 M^−1 cm^−1, and the complexation constants of phenolphthalein with cyclodextrin and cyclodextrin derivatives are preliminary obtained. […] Complexation constants of cyclodextrin-compatible and/or cyclodextrin-incompatible materials are determined with using the free, uncomplexed phenolphthalein concentration obtained by absorbance at 550 nm.
row,Compound,Complexation Constant (K)
1,Lauramine oxide,about 7500
2,CCCCCCCCCCCCOS(=O)(=O)[O-].[Na+] [Sodium dodecyl sulfate],about 22000
3,Laureth-6,about 10000
4,CCCCCCCCCCCC(=O)[O-].[Na+] [Sodium laurate],about 16000

# Assay: Complexation constant of phenolphthalein with beta-cyclodextrin (absorbance at 550 nm)
# Format: physicochemical
# Settings: room temperature, 4.0×10^−3 mol/l Na2CO3, pH 10.5
# Excerpt: A spectral displacement method with phenolphthalein is used to determine the complexation constant between cyclodextrin and a given material, especially for surfactants. This method of determining complexation constants with cyclodextrins is described in detail in the following references, which are hereby incorporated herein by reference: Sasaki, K. J., Christian, S. D., and Tucker, E. E., “Study of the Stability of 1:1 Complexes Between Aliphatic Alcohols and b-Cyclodextrins in Aqueous Solution,” Fluid Phase Equilibria, Vol. 49, (Amsterdam, Elsevier Science Publishers, 1989), pp. 281-89. Further information regarding spectral displacement methods can be found in other references, e.g. in Wilson, L. D., Siddall, S. R., and Verrall R. E., “A Spectral Displacement Study of the Binding Constants of Cyclodextrin-Hydrocarbon and—Fluorocarbon Surfactant Inclusion Complexes,” Canadian Journal of Chemistry, Vol. 75, (NRC Canada 1997), pp. 927-933, which is incorporated by reference herein. […]
# The complexation constant of a given material with cyclodextrin is obtained by an absorbance measurement in the visible region at 550 nm that is performed with a spectrophotometer at room temperature. […] Complexation constants of cyclodextrin-compatible and/or cyclodextrin-incompatible materials are determined with using the free, uncomplexed phenolphthalein concentration obtained by absorbance at 550 nm.
row,Compound,complexation constant of phenolphthalein with beta-cyclodextrin
1,O=C1OC(c2ccc(O)cc2)(c2ccc(O)cc2)c2ccccc21 [phenolphthalein],"about 21,000 M^−1"

# Assay: CD interaction of perfume components
# Format: physicochemical
# Parameters: key: cyclodextrin-compatible perfume materials (i.e. having weak CD interaction); cyclodextrin-incompatible enduring (hydrophobic) perfume materials (i.e. having significant or strong CD interaction); cyclodextrin-incompatible enduring (hydrophobic) perfume materials (i.e. having significant or strong CD interaction)
# Settings: perfume component with cyclodextrin
# Excerpt: The following table illustrates the molecular weight property of some of the cyclodextrin-incompatible enduring (hydrophobic) perfume materials (i.e. having significant or strong CD interaction) versus cyclodextrin-compatible perfume materials (i.e. having weak CD interaction).
row,Compound,CD interaction
1,CC(C=O)Cc1ccc(C(C)C)cc1 (centres unmarked) [Cymal],strong
2,a-Me Ionone,strong
3,CCCCCCCCCCCCCC(=O)OC(C)C [Iso-propyl Myristate],weak
4,CCCCCC1C(=O)CCC1CC(=O)OC (centres unmarked) [Methyl Dihydro Jasmonate],weak
5,O=C(Cc1ccccc1)OCCc1ccccc1 [Phenyl-Ethyl-Phenyl Acetate],weak
6,CCC(=O)OC1CC2CC1C1CC=CC21 (centres unmarked) [Frutene],strong
7,"CC(=O)OC1CCC(C(C)(C)C)CC1 (centres unmarked) [Vertenex, para-tert-butylcyclohexyl acetate]",strong
8,CC(=O)OC1CC2CC1C1CC=CC21 (centres unmarked) [Flor Acetate],strong
9,CC(=O)C(C)=C(C)C(C)C(C)(C)C (centres unmarked) [Koavone],strong
10,"CC(C=O)Cc1ccc(C(C)(C)C)cc1 (centres unmarked) [Lilial, p-t-bucinal]",strong
11,CC1COCc2cc3c(cc21)C(C)(C)C(C)C3(C)C (centres unmarked) [Galaxolide],weak
12,CC(=O)OC(C)(C)C1CC=C(C)CC1 (centres unmarked) [Terpinyl Acetate],significant
13,CCC(C)(O)CCCC(C)C (centres unmarked) [Tetrahydrolinalol],significant
14,CCOC(=O)c1ccccc1C(=O)OCC [Diethyl Phthalate],weak
15,CC(C)(O)CCCC1=CCC(C=O)CC1 (centres unmarked) [Lyral],weak
16,CCCCCCOC(=O)c1ccccc1O [Hexyl Salicylate],weak
17,CC(=O)/C=C/C1C(C)=CCCC1(C)C (centres unmarked) [a-ionone],strong
18,CCCCCCC(C=O)=Cc1ccccc1 [Hexyl cinnamic Aldehyde],weak
19,CC(=O)C1(C)CC2=C(CCCC2(C)C)CC1C (centres unmarked) [Iso-E Super],weak

# Assay: not given
# Settings: cited from earlier work
row,Compound,solubility in water
1,"[H]/N=C(\N/C(=N/[H])NCCCCCCNC(=N)NC(=N)Nc1ccc(Cl)cc1)Nc1ccc(Cl)cc1 [diacetate salt, 1,1′-hexamethylene bis(5-(p-chlorophenyl)biguanide)]",about 1.8%
2,"[H]/N=C(\N/C(=N/[H])NCCCCCCNC(=N)NC(=N)Nc1ccc(Cl)cc1)Nc1ccc(Cl)cc1 [digluconate salt, 1,1′-hexamethylene bis(5-(p-chlorophenyl)biguanide)]",about 70%
